Results taken from US5770604A, “Aconitine compound and an antipyretic/analgesic/anti-inflammatory agent” (priority 1994, dated 1998).

How the values were obtained:
[1] = system: nociceptive response (licking); test: Analgesic activity by the hot-plate method; type: in vivo, mice (Std:ddY, male); conditions: mouse, 52° C. plate, solution 10 mg/10 ml, mean ± standard error
Method: Measurement of Analgesic Activity by the Hot-Plate Method
Std:ddY Strain male mice (20-25 g) were fasted for one day before the experiment, and were used. After compounds shown in Table 1 were formed to the tartaric acid salts, these compounds were dissolved in 0.9% physiologocal saline solution at the rate of 10 mg/10 ml, respectively and these solution were used as test compound solution. In a control, 0.9% physiological saline solution was used. Mice were placed on a cyrindric hot plate (diameter: 22 cm, height: 11 cm) made of copper which was fixed in a water bath adjusted to 52° C. so that each animal's four paws came into contact with the plate and the time taken to show the nociceptive response (licking) as an index of pain was measured. Mice showing response latency above 25 seconds were excluded from the experiment. To prevent a burn damage of mouse tissue by heating, cutoff time of 50 seconds was defined. The results were described as an inhibition rate (%) obtained from the following equation.
Inhibition rate (%)=(A-B)×100/(50-B)
A: Response latency (seconds) after the administration of test compound solution
B: Response latency (seconds) before the administration of test compound solution

yeast-induced fever = test: Antipyretic activity on yeast-induced fever in rats; type: in vivo, rats (Wistar, male); conditions: rat, 2 hours after administration
Method: Measurement of Antipyretic Activity on Yeast-Induced Fever in Rats
Wistar Strain male rats (150-190 g) were fasted for one day before the experiment, and were used. Compounds of number (1) and (2) in Table 1 were formed to the tartaric acid salt and these salts were dissolved in 0.9% physiological saline solution at the rate of 10 mg/10 ml and these solution were used as test compound solution. In a control, 0.9% physiological saline solution was used. After rat rectal temperature was measured, 1 ml/100 g of body weight of 7.5% yeast/0.9% physiological saline solution was injected s.c. at dorsal position. Then, rat rectal temperature was measured at 4 hour after the injection of yeast and rats showing the increase rectal temperature by 1 degree or more were selected and used. Test compound solution was administered s.c. at 5 hours after the injection of yeast. The rectal temperature was measured 2 hours after the administration of test compound solution. The results were described with the difference between the rectal temperature before and after the administration of test compound solution.

[2] = system: pain threshold (tail-pressure); test: Tail-pressure method, comparison with morphine (i.v.); type: in vivo, mice (Std:ddY, male); conditions: for Inhibition rate: mean ± standard error
Method: (2) Comparison with Morphine
Std:ddY Strain male mice (20-25 g) were fasted for one day before the experiment, and were used. In this experiment, the tartaric acid salt of a compound of number (2) in Table 1 and morphine hydrochloride as a possitive control were used. This tartaric acid salt was dissolved in 0.9% physiological saline solution at the rates of 5 mg/2 ml, 3 mg/2 ml and 1 mg/2 ml. Morphine hydrochloride was dissolved in 0.9% physiological saline solution at the rates of 5 mg/2 ml, 3 mg/2 ml and 1 mg/2 ml. As a negative control, 0.9% phisiological saline solution was used. A tail-pressure apparatus was used in this experiments. Before the administration of test compounds, the pain threshold was measured twice at intervals of 30 minutes and those mice indicating a pain threshold of 50 to 100 mmHg were selected and used. The pain threshold of each mouse was measured at 10, 20 and 30 minutes after test compound solution mentioned above was administered at 2 ml/kg, i.v. 0.9% Physiological saline solution as a control was administered i.v. The results were described as an inhibition rate (%) indicating in the preceding paragraph (1).

[3] = system: pain threshold (tail-pressure); test: Tail-pressure method, experiment combined with morphine antagonist (levallorphan); type: in vivo, mice (Std:ddY, male); conditions: 10 mg/kg i.v., mean ± standard error
Method: (4) Experiment Combined with Morphine Antagonist
Std:ddY Strain male mice (20-25 g) were fasted for one day before the experiment, and were used. In this experiment, the tartaric acid salt of a compound of number (2) in Table 1, morphine hydrochloride and levallorphan hydrochloride of an opioid antagonist were used. The tartaric acid salt of a compound of number (2) was dissolved in 0.9% physiological saline solution at the rate of 10 mg/2 ml. Morphine hydrochloride was dissolved in 0.9% physiological saline solution at the rate of 10 mg/2 ml. Levallorphan hydrochloride was dissolved in 0.9% physiological saline solution at the rate of 1 mg/10 ml. As a control, 0.9% physiological saline solution was used. A tail-pressure apparatus was used in this experiments. Before the administration of levallorphan hydrochloride, the pain threshold was measured twice at intervals of 30 minutes and those mice indicating a pain threshold of 50 to 100 mmHg were selected and used. Levallorphan hydrochloride solution mentioned above was administered s.c. at the rate of 10 ml/kg and, 30 minutes later, the above tartaric acid salt solution compound of number (2) or morphine hydrochloride solution was injected i.v. at the rate of 2 ml/kg, respectively. Each pain threshold was measured 10, 20 and 30 minutes after an intravenous injection. In control group, 0.9% physiological saline solution was injected i.v. at the rate of 2 ml/kg at 30 minutes after s.c. administration at 10 ml/kg of 0.9% physiological saline solution. In the single administration group of levallorphan hydrochloride, levallorphan hydrochloride solution mentioned above was administered s.c. at the rate of 10 ml/kg and, 30 minutes later, 0.9% physiological saline solution was injected i.v. at the rate of 2 ml/kg. The results were described in Table 10 as an inhibition rate (%) indicating in the preceding paragraph (1).

SMILES: CCN1CC2(COC)C(O)CC(OC)C34C5CC6(O)C(OC)C(OC(C)=O)C(O)(C5C6OC(=O)c5ccc(Cl)cc5)C(C(OC)C23)C14 (centres unmarked) [(2), 15-O-acetyl-14-O-p-chlorobenzoylaconine]
- Inhibition rate (hot-plate method) [1]: 76 ± 11%
- Change of rectal temperature (yeast-induced fever; 1 mg/kg s.c.): 1.5 ± 0.2 °C
- Change of rectal temperature (yeast-induced fever; 3 mg/kg s.c.): 0.5 ± 0.2 °C
- Change of rectal temperature (yeast-induced fever; 10 mg/kg s.c.): 0.3 ± 0.1 °C
- Inhibition rate ([2]; 1 mg/kg i.v., 10 minutes): 5 ± 4%
- Inhibition rate ([2]; 1 mg/kg i.v., 20 minutes): 4 ± 4%
- Inhibition rate ([2]; 1 mg/kg i.v., 30 minutes): 2 ± 3%
- Inhibition rate ([2]; 3 mg/kg i.v., 10 minutes): 14 ± 15%
- Inhibition rate ([2]; 3 mg/kg i.v., 20 minutes): 16 ± 10%
- Inhibition rate ([2]; 3 mg/kg i.v., 30 minutes): 12 ± 12%
- Inhibition rate ([2]; 5 mg/kg i.v., 10 minutes): 38 ± 13%
- Inhibition rate ([2]; 5 mg/kg i.v., 20 minutes): 27 ± 6%
- Inhibition rate ([2]; 5 mg/kg i.v., 30 minutes): 22 ± 7%
- analgesic activity compared with morphine, in words ([2]; mouse, i.v.): had an equal analgesic activity in its strength to morphine
- Inhibition rate ([3]; with levallorphan 1 mg/kg s.c. 30 minutes before, 10 min): 86 ± 25%
- Inhibition rate ([3]; with levallorphan 1 mg/kg s.c. 30 minutes before, 20 min): 77 ± 14%
- Inhibition rate ([3]; with levallorphan 1 mg/kg s.c. 30 minutes before, 30 min): 67 ± 22%
- Inhibition rate ([3]; without levallorphan, 10 min): 85 ± 15%
- Inhibition rate ([3]; without levallorphan, 20 min): 80 ± 20%
- Inhibition rate ([3]; without levallorphan, 30 min): 65 ± 21%
